Assay results as given in ChEMBL document CHEMBL1128659, “Tetramic acids as novel glycine site antagonists” (Bioorg Med Chem Lett, 1995).

Experiments:
[1] = target: Glutamate receptor ionotropic, NMDA 1 (Rattus norvegicus, UniProt P35439); test: Inhibition of binding affinity of [3H]L-689,560 to the strychnine insensitive glycine site on rat brain membranes; assay type: cell membranes, Membrane
[2] = organism: Rattus norvegicus; test: Inhibition of N-Methyl-D-aspartate (NMDA)-induced depolarizations in rat cortical slices; assay type: functional
[3] = pKa value was measured; assay type: physicochemical
[4] = target: Glutamate receptor ionotropic, NMDA 1 (Rattus norvegicus) (UniProt P35439); test: Inhibition of binding affinity of [3H]L-689,560 to the strychnine insensitive glycine site on rat brain membranes at a concentration of 100 uM; assay type: cell membranes; conditions: Membrane

Row | Compound | IC50 [1] [µM] | Kb [2] [µM] | pKa [3] | inhibition [4] [%]
1 | O=C1N/C(=C\c2ccccc2)C(O)=C1c1ccccc1 | 24.2 | – | – | –
2 | CC/C=C1/NC(=O)C(c2ccccc2)=C1O | 45.5 | 115 | 4.6 | –
3 | O=C1N/C(=C/C2CC2)C(O)=C1c1ccccc1 | – | – | – | 18
4 | CC/C=C1/NC(=O)C(c2cccc(Oc3ccccc3)c2)=C1O | 0.7 | 6.15 | – | –
5 | O=C1C=C(O)CN1 | – | – | 6.4 | –
6 | C=C(C)COc1cccc(C2=C(O)/C(=C\CC)NC2=O)c1 | 3 | 15.8 | – | –
7 | O=C1N/C(=C\C2CC2)C(O)=C1c1ccccc1 | 9.5 | – | – | –
8 | CCC/C=C1\NC(=O)C(c2ccccc2)=C1O | 15.7 | 154 | – | –
9 | O=c1cc(O)c2ccc(Cl)cc2[nH]1 | – | – | 5.8 | –
